# “Also recorded” adds a separate entry of the source.
# What was measured:
# [1] = Blood brain barrier permeability, brain and plasma levels; format: in vivo, mouse; settings: WT and J20 mice
# Method: FIG. 14: Selectivity and blood brain permeability of VX-765 and VRT-043198. (a-b) IC50 of VX-765 (a) and VRT-043198 (b) against human Casp1-10. (c-d) IC50 of VX-765 (c) and VRT-043198 (d) against mouse Casp1 and Casp11. (e) Blood brain barrier permeability and presence of VX-765 and VRT-043198 in 3 wild type and 4 J20 mice brain cortex and hippocampus and in plasma. Ratios of brain levels to plasma levels are calculated.
# [2] = system: J20 mice; assay: Novel object recognition (NOR), treatment of symptomatic J20 mice; format: in vivo, mouse; settings: for NOR behavior: 10 mg/kg; for NOR discrimination index: 25 mg/kg; for NOR deficit: 50 mg/kg IP
# Source text: (§1) FIG. 8: VX-765 treatment restores cognitive function in J20 mice. (a) Experimental paradigm. Intraperitoneal vehicle-injected wild type (WT+Vehicle; n=13) and J20 mice (J20+Vehicle: n=9), and VX-765-injected J20 mice (J20+VX-765: n=9) mice were behaviourally assessed at 5 different time-points: baseline before treatment (baseline untreated J20 were grouped together; n=18), after 3 IP injections/wk of VX-765 or vehicle (Treatment 1), after 6 additional injections over 2 weeks (Treatment 2), after 4-week Washout period, and after an additional 3 injections in one week (Treatment 3). Mice were sacrificed at 8 months of age after Treatment 3 (b) NOR Discrimination index (Treatment main effect, F(2,20)=85.8, p<0.0001; Time main effect, F(4,80)=4.188, p=0.0039; Treatment×Time interaction, F(8,80)=[…], two-way repeated-measures ANOVA, Dunnett's post-hoc compared to J20+Vehicle). (c) Distance traveled during Open Field task. Data analyzed by repeated measures two-way ANOVA (Treatment main effect, F(2,19)=11.47, p=0.0005; Treatment×Time interaction, F(8,76)=5.69, p<0.0001, two-way repeated-measures ANOVA, Dunnett's post-hoc compared to J20+Vehicle). (d-i) Barnes maze analysis. Learning acquisition (d,g), probe test primary latency and errors (e,h), and target hole preference (f,i); # of pokes of each hole labelled +1 to +9 to the right or −1 to −9 to the left of the target hole during the probe) after Treatment 2 (d-f) and Washout (g-i). Probe tests were analyzed (Treatment 2 primary latency, F(2,52)=5.879, p=0.0050; Treatment 2 primary errors, F(2,52)=9.998, p=0.0002; Washout primary latency, F(2,22)=4.076, p=0.0312; Washout primary errors, F(2,22)=10.84, p=0.0005, ANOVA, Tukey's post-hoc). * p<0.05, ***p<0.001, ****p<0.0001.
# […] The 20-week-old mice were treated per the paradigm in section. VX-765 reverses episodic memory deficits in the J20 mouse.
# Anxiety and hyperactivity are monitored in an open-field paradigm, episodic memory with the NOR, spatial memory with the Barnes maze, and short or long term working memory with the Y maze before and after treatments. Repeated measures are acceptable for the NOR, Barnes and Y maze^2-4.
# J20 and littermate WT mice (20 wks) were first tested for episodic memory deficits with Novel Object Recognition (NOR) and anxiety and hyperactivity in an open-field paradigm. […] The injections were continued for 2 weeks at 3 injections/week (48 hr intervals between injections and 3 day interval between weeks) and mice retested. […]
# [3] = system: J20 mice; assay: Open field hyperactivity, treatment of symptomatic J20 mice; format: in vivo, mouse; settings: for hyperactivity in open field: Treatment 2; for hyperactivity, distance travelled in open field: 50 mg/kg IP
# Source text: as §1
# Anxiety and hyperactivity are monitored in an open-field paradigm, episodic memory with the NOR, spatial memory with the Barnes maze, and short or long term working memory with the Y maze before and after treatments. Repeated measures are acceptable for the NOR, Barnes and Y maze^2-4. […]
# [4] = system: J20 mice; assay: Amyloid immunostaining and ELISA, preventive treatment of J20 mice; format: in vivo, mouse
# Source text: FIG. 24: Immunostaining of mice brains at 8 months of age (20 week washout) with anti-amyloid beta peptide 1-40 antiserum (a). […] (b) Quantitation of the immunopositive density of amyloid staining at 4, 8, 12, 16, and 20 weeks washout of VX-765 when mice are 4, 5, 6, 7, and 8 months respectively. (c) ELISA analyses of RIPA-soluble and formic-acid soluble hippocampal and cortical tissue protein extracts.
# We directly tested whether pre-symptomatic inhibition of inflammation in a mouse genetic model of Alzheimer disease can stem the progression of memory and behavioral deficits, and Alzheimer disease-like pathology. The J20 amyloid precursor protein Swedish/Indiana mutant mouse was treated at 2 months of age for a one month period with 50 mg/Kg Caspase-1 inhibitor VX-765 (FIG. 22a).
# [5] = system: serum-deprived human neurons; assay: Aβ42/total Aβ and cytokine levels of serum-deprived human neurons; format: cell-based
# Method: FIG. 13: VX-765 protects CNS primary human neurons (HPN) against APP- or serum deprivation-mediated neuritic beading. (a) MTT assay with increasing dose of VX-765. (b) Fluorescent micrographs showing homogeneous distribution of EGFP in normal neurons and neuritic beading in APP-transfected neurons. (c) Percentage beading in APP-transfected or serum-deprived neurons treated 1 h before and continuously with stressor (Pre-treatment) or 48 h after stressor (post-beading treatment) with 25 or 50 μM VX-765 or with 5 μM Z-YVAD-fmk Casp1 peptide inhibitor. […] (d-e) HPN secreted or cellular Aβ42/total Aβ38+40+42 (d) (F(3,4)=12.73, p=0.0163, ANOVA, Dunnett's post-hoc compared to Serum+DMSO, *p<0.05), and (e) levels of secreted II-1β, IFN-γ, TNF-α, and II-6 from untreated (+S), serum deprived (−S), or serum-deprived human neurons treated with 25 or 50 μM VX-765.
structure (smiles),measurement,setting,value
"CCO[C@@H]1OC(=O)C[C@@H]1NC(=O)[C@@H]1CCCN1C(=O)[C@@H](NC(=O)c1ccc(N)c(Cl)c1)C(C)(C)C [VX-765, (S)-1-((S)-2-{[1-(4-amino-3-chloro-phenyl)-methanoyl]-amino}-3,3-dimethyl-butanoyl)-pyrrolidine-2-carboxylic acid ((2R,3S)-2-ethoxy-5-oxo-tetrahydro-furan-3-yl)-amide]",blood brain barrier crossing,[1],crossed the blood brain barrier
same,concentrations in hippocampus and cortex,[1],reached physiologically active concentrations
same,metabolism of the pro-drug,[1],metabolized into VRT-043198
same,NOR behavior,[2]; Treatment 1 and 2,normalized NOR behavior only after T2
same,NOR behavior,[2]; Treatment 3,reappeared after T3
same,NOR behavior,[2]; washout,washed out
same,NOR discrimination index,[2]; Treatment 1,normalized
same,NOR discrimination index,[2]; Treatment 2,normalized
same,NOR discrimination index,[2]; Treatment 3,returned to normal at T3
same,NOR discrimination index,[2]; washout,deficits reappeared after WO
same,NOR deficit,[2]; after 3 injections (Treatment 1),reverted to normal; also recorded: reversed and reached near-normal levels
same,NOR deficit,[2]; after 3 more injections (Treatment 3),attenuated NOR deficits; also recorded: disappeared again after T3
same,NOR deficit,[2]; after 4-week washout,NOR deficits reappeared; also recorded: reappeared after the WO period
same,NOR deficit,[2]; after additional 2 weeks of injections (Treatment 2),continued to perform normally; also recorded: reversed and reached near-normal levels
same,hyperactivity in open field,[3]; 10 mg/kg,"non-significant improvement at T2 with 25, but not 10"
same,hyperactivity in open field,[3]; 25 mg/kg,non-significant improvement
same,"hyperactivity, distance travelled in open field",[3]; Treatment 2 (3 weeks of treatment),attenuated only after 3 weeks of treatment; also recorded: attenuated by VX-765 only after T2
same,"hyperactivity, distance travelled in open field",[3]; Treatment 3,significantly reduced after T3
same,"hyperactivity, distance travelled in open field",[3]; after washout,reappeared after WO
same,"RIPA-soluble Aβ38, Aβ40, Aβ42, total Aβ, Aβ42/total Aβ","[4]; ELISA, hippocampal tissue",do not detect major differences
same,formic acid soluble Aβ measures,[4]; cortical,not reduced
same,amyloid levels in RIPA-soluble protein extracts,[4]; cortical tissue,no effect
same,immunopositive density of amyloid staining,"[4]; hippocampi and cortex, 16 and 20 week washout",slightly less amyloid
same,formic acid soluble Aβ42/total Aβ,"[4]; hippocampi, 20 week washout",lower
same,RIPA-soluble Aβ42/total Aβ,"[4]; hippocampus, 20 week washout",slightly decreased
same,secreted and cellular Aβ42/total Aβ levels,[5]; 25 μM,"reduced secreted, but not cellular"
same,secreted and cellular Aβ42/total Aβ levels,[5]; 50 μM,reduced secreted and cellular
same,"levels of II-1β, IFN-γ, TNF-α, and II-6","[5]; 25 and 50 μM, trend, not statistically significant",reduced at both concentrations

# — patent US11160788B2, “Caspase-1 inhibition and uses thereof for prevention and treatment of neurological conditions” (priority 2016, dated 2021)
